Paper PMC11876601 (Molecular Systems Biology, 2025)
Several values for one entry are separate records, joined by “and”; a condition that tells them apart may be missing. Equal entries are not always repeated. Where two headings read alike, the source gives them in different places.

System: AsPC-1 cells
Assay: Cell proliferation assay, chemodrug + ATR inhibitor (Incucyte confluence, 72 h);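 also: underlying read-out for every value is AsPC-1 confluence after 72 h incubation at 37 °C and 5% CO2, divided by that well's starting confluence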
Conditions: for Curve bottom / Curve top: fitted curve, relative response; for Curve slope: fitted dose-response curve; for EC50: Homo sapiens
[1] = AsPC1, Experiment GEM alone in the Berzosertib series
[2] = AsPC1, Experiment GEM alone in the Ceralasertib series
[3] = AsPC1, Experiment GEM alone in the Elimusertib series
[4] = AsPC1, Experiment GEM alone in the Gartisertib series

Description: Cells were seeded at 5000 cells/well into 96-well flat bottom plates (Eppendorf) and allowed to attach overnight. […] Cells were incubated for 72 h at 37 °C and 5% CO2. Cell confluence readouts at 72 h were either normalized to their initial confluence using the Incucyte software (AsPC-1) or used without prior normalization (all others). […] Each experiment was performed in triplicates, the data was plotted as mean ± standard deviation (s.d.).

How did the Curve bottom [1] turn out when `Nc1ccn([C@@H]2O[C@H](CO)[C@@H](O)C2(F)F)c(=O)n1` [GEM, Gemcitabine] was run?
The Curve bottom was 1.01 and 1.02.

What about the Curve top [1] of the same compound?
The Curve top was 0.52 and 0.50.

And the Curve bottom [2]?
Its Curve bottom is 0.98 and 0.99.

And the Curve top [2]?
The Curve top was 0.56 and 0.44 and 0.46.

And the Curve bottom [3]?
Its Curve bottom is 1.00 and 0.96 and 1.04.

And the Curve top [3]?
The Curve top was 0.42 and 0.43 and 0.44.

And the Curve slope [3]?
Its Curve slope is 1.10 and 1.63 and 1.11.

What about the Curve bottom [4] of the same compound?
Its Curve bottom is 0.99 and 0.98 and 1.02.

And the Curve top [4]?
The Curve top was 0.53 and 0.46 and 0.43.

And the Curve slope [4]?
Its Curve slope is 0.94 and 1.48 and 1.05.

And the “Raw data (confluence at 72 h/confluence at 0 h)” value (from here on “Raw data”) (Berzosertib experiment, replicate R3, titrated drug dose 1 nM)?
The value was 3.42.

And the “Raw data” value (Berzosertib experiment, replicate R3, titrated drug dose 3 nM)?
The value was 3.51.

And the “Raw data” value (Berzosertib experiment, replicate R3, titrated drug dose 10 nM)?
The value was 3.46.

And the “Raw data” value (Berzosertib experiment, replicate R3, titrated drug dose 30 nM)?
Its value is 3.01.

And the “Raw data” value (Berzosertib experiment, replicate R3, titrated drug dose 100 nM)?
The value was 2.04.

What about the “Raw data” value (Berzosertib experiment, replicate R1, titrated drug dose 1 nM) of the same compound?
The value was 3.13.

What about the “Raw data” value (Berzosertib experiment, replicate R1, titrated drug dose 3 nM) of the same compound?
Its value is 3.29.

What about the “Raw data” value (Berzosertib experiment, replicate R1, titrated drug dose 10 nM) of the same compound?
The value was 2.93.

What about the “Raw data” value (Berzosertib experiment, replicate R1, titrated drug dose 30 nM) of the same compound?
The value was 2.52.

What about the “Raw data” value (Berzosertib experiment, replicate R1, titrated drug dose 100 nM) of the same compound?
Its value is 2.11.

What about the “Raw data” value (Berzosertib experiment, replicate R1, titrated drug dose 300 nM) of the same compound?
Its value is 1.92.

And the “Raw data” value (Berzosertib experiment, replicate R2, titrated drug dose 1 nM)?
Its value is 3.67.

What about the “Raw data” value (Berzosertib experiment, replicate R2, titrated drug dose 3 nM) of the same compound?
Its value is 3.44.

And the “Raw data” value (Berzosertib experiment, replicate R2, titrated drug dose 10 nM)?
The value was 3.56.

What about the “Raw data” value (Berzosertib experiment, replicate R2, titrated drug dose 30 nM) of the same compound?
The value was 3.03.

And the “Raw data” value (Ceralasertib experiment, replicate R1, titrated drug dose 1 nM)?
Its value is 2.79.

What about the “Raw data” value (Ceralasertib experiment, replicate R1, titrated drug dose 3 nM) of the same compound?
The value was 3.19.

What about the “Raw data” value (Ceralasertib experiment, replicate R1, titrated drug dose 10 nM) of the same compound?
Its value is 2.64.

What about the “Raw data” value (Ceralasertib experiment, replicate R1, titrated drug dose 30 nM) of the same compound?
Its value is 2.39.

And the “Raw data” value (Ceralasertib experiment, replicate R1, titrated drug dose 100 nM)?
Its value is 2.12.

What about the “Raw data” value (Ceralasertib experiment, replicate R2, titrated drug dose 1 nM) of the same compound?
Its value is 3.88.

And the “Raw data” value (Ceralasertib experiment, replicate R2, titrated drug dose 3 nM)?
The value was 3.93.

What about the “Raw data” value (Ceralasertib experiment, replicate R2, titrated drug dose 10 nM) of the same compound?
The value was 3.66.

And the “Raw data” value (Ceralasertib experiment, replicate R2, titrated drug dose 30 nM)?
The value was 3.19.

And the “Raw data” value (Ceralasertib experiment, replicate R2, titrated drug dose 100 nM)?
Its value is 2.36.

What about the “Raw data” value (Ceralasertib experiment, replicate R2, titrated drug dose 300 nM) of the same compound?
The value was 1.88.

What about the “Raw data” value (Ceralasertib experiment, replicate R3, titrated drug dose 1 nM) of the same compound?
The value was 3.42.

And the “Raw data” value (Ceralasertib experiment, replicate R3, titrated drug dose 3 nM)?
Its value is 3.64.

And the “Raw data” value (Experiment (ATRi) Elimusertib, replicate R1, drug dose (titrated) 1 nM)?
Its value is 3.45.

And the “Raw data” value (Experiment (ATRi) Elimusertib, replicate R1, drug dose (titrated) 3 nM)?
The value was 3.34.

What about the “Raw data” value (Experiment (ATRi) Elimusertib, replicate R1, drug dose (titrated) 10 nM) of the same compound?
Its value is 3.17.

What about the “Raw data” value (Experiment (ATRi) Elimusertib, replicate R1, drug dose (titrated) 30 nM) of the same compound?
Its value is 2.54.

And the “Raw data” value (Experiment (ATRi) Elimusertib, replicate R1, drug dose (titrated) 100 nM)?
Its value is 1.97.

And the “Raw data” value (Experiment (ATRi) Elimusertib, replicate R1, drug dose (titrated) 1000 nM)?
Its value is 1.56.

And the “Raw data” value (Experiment (ATRi) Elimusertib, replicate R1, drug dose (titrated) 3000 nM)?
Its value is 1.44.

What about the “Raw data” value (Experiment (ATRi) Elimusertib, replicate R2, drug dose (titrated) 1 nM) of the same compound?
Its value is 3.86.

And the “Raw data” value (Experiment (ATRi) Elimusertib, replicate R2, drug dose (titrated) 3 nM)?
Its value is 3.95.

What about the “Raw data” value (Experiment (ATRi) Elimusertib, replicate R2, drug dose (titrated) 10 nM) of the same compound?
The value was 3.59.

And the “Raw data” value (Experiment (ATRi) Elimusertib, replicate R2, drug dose (titrated) 30 nM)?
Its value is 3.07.

What about the “Raw data” value (Experiment (ATRi) Elimusertib, replicate R2, drug dose (titrated) 100 nM) of the same compound?
The value was 2.33.

What about the “Raw data” value (Experiment (ATRi) Elimusertib, replicate R3, drug dose (titrated) 1 nM) of the same compound?
The value was 3.76.

And the “Raw data” value (Experiment (ATRi) Elimusertib, replicate R3, drug dose (titrated) 3 nM)?
Its value is 3.85.

And the “Raw data” value (Experiment (ATRi) Elimusertib, replicate R3, drug dose (titrated) 10 nM)?
Its value is 3.75.

What about the “Raw data” value (Experiment (ATRi) Elimusertib, replicate R3, drug dose (titrated) 30 nM) of the same compound?
Its value is 3.15.

And the “Raw data” value (Experiment (ATRi) Elimusertib, replicate R3, drug dose (titrated) 100 nM)?
Its value is 2.28.

And the “Raw data” value (Experiment (ATRi) Gartisertib, replicate R1, drug dose (titrated) 1 nM)?
Its value is 3.28.

What about the “Raw data” value (Experiment (ATRi) Gartisertib, replicate R1, drug dose (titrated) 3 nM) of the same compound?
Its value is 3.04.

What about the “Raw data” value (Experiment (ATRi) Gartisertib, replicate R1, drug dose (titrated) 10 nM) of the same compound?
Its value is 2.71.

What about the “Raw data” value (Experiment (ATRi) Gartisertib, replicate R1, drug dose (titrated) 30 nM) of the same compound?
Its value is 2.57.

What about the “Raw data” value (Experiment (ATRi) Gartisertib, replicate R1, drug dose (titrated) 100 nM) of the same compound?
Its value is 2.04.

And the “Raw data” value (Experiment (ATRi) Gartisertib, replicate R1, drug dose (titrated) 300 nM)?
Its value is 1.92.

What about the “Raw data” value (Gartisertib experiment, replicate R2, titrated drug dose 1 nM) of the same compound?
Its value is 4.01.

What about the “Raw data” value (Gartisertib experiment, replicate R2, titrated drug dose 3 nM) of the same compound?
Its value is 4.05.

And the “Raw data” value (Gartisertib experiment, replicate R2, titrated drug dose 10 nM)?
Its value is 3.93.

What about the “Raw data” value (Gartisertib experiment, replicate R2, titrated drug dose 30 nM) of the same compound?
Its value is 3.32.

And the “Raw data” value (Gartisertib experiment, replicate R2, titrated drug dose 100 nM)?
The value was 2.49.

And the “Raw data” value (Gartisertib experiment, replicate R2, titrated drug dose 300 nM)?
Its value is 2.07.

And the “Raw data” value (Gartisertib experiment, replicate R2, titrated drug dose 1000 nM)?
The value was 1.91.

And the “Raw data” value (Gartisertib experiment, replicate R2, titrated drug dose 3000 nM)?
The value was 1.89.

And the “Raw data” value (Gartisertib experiment, replicate R3, titrated drug dose 1 nM)?
Its value is 4.16.

What about the “Raw data” value (Gartisertib experiment, replicate R3, titrated drug dose 3 nM) of the same compound?
Its value is 3.98.

What about the “Raw data” value (Gartisertib experiment, replicate R3, titrated drug dose 10 nM) of the same compound?
Its value is 3.74.

And the “Raw data” value (Gartisertib experiment, replicate R3, titrated drug dose 30 nM)?
Its value is 3.24.

What about the “Raw data” value (Gartisertib experiment, replicate R3, titrated drug dose 100 nM) of the same compound?
The value was 2.56.

What about the “Raw data” value (Gartisertib experiment, replicate R3, titrated drug dose 300 nM) of the same compound?
Its value is 2.02.

What about the EC50 (ASPC1, 72 h, AsPC1, Experiment GEM (Gemcitabine alone) in the Berzosertib series, single replicates R1-R3) of the same compound?
The EC50 was 34.6 nM.

And the EC50 (ASPC1, 72 h, AsPC1, Experiment GEM (Gemcitabine alone) in the Ceralasertib series, single replicates R1-R3)?
Its EC50 is 42.6 nM.

What about the EC50 (ASPC1, 72 h, AsPC1, Experiment GEM (Gemcitabine alone) in the Elimusertib series, single replicates R1-R3) of the same compound?
Its EC50 is 42.4 nM.

And the EC50 (ASPC1, 72 h, AsPC1, Experiment GEM (Gemcitabine alone) in the Gartisertib series, single replicates R1-R3)?
Its EC50 is 34.1 nM.

And the EC50 (ASPC1, 72 h, read-out: EC50 (cell growth), GEM alone, mean of four experiments)?
Its EC50 is 45 nM.

And the EC50 (ASPC1, 72 h, read-out: EC50 mean [nM], AsPC1, Experiment GEM alone in the Berzosertib series, mean of replicates)?
The EC50 was 40.5 nM.

What about the EC50 (ASPC1, 72 h, read-out: EC50 mean [nM], AsPC1, Experiment GEM alone in the Ceralasertib series, mean of replicates) of the same compound?
Its EC50 is 45.5 nM.

And the EC50 (ASPC1, 72 h, read-out: EC50 mean [nM], AsPC1, Experiment GEM alone in the Elimusertib series, mean of replicates)?
The EC50 was 44.4 nM.

What about the EC50 (ASPC1, 72 h, read-out: EC50 mean [nM], AsPC1, Experiment GEM alone in the Gartisertib series, mean of replicates) of the same compound?
The EC50 was 46 nM.

And the EC50 (ASPC1, 72 h, read-out: pEC50, AsPC1 (converted), Experiment GEM (Gemcitabine alone) in the Berzosertib series, single replicates R1-R3)?
The EC50 was 34.7 nM.

And the EC50 (ASPC1, 72 h, read-out: pEC50, AsPC1 (converted), Experiment GEM (Gemcitabine alone) in the Ceralasertib series, single replicates R1-R3)?
Its EC50 is 42.7 nM.

And the EC50 (ASPC1, 72 h, read-out: pEC50, AsPC1 (converted), Experiment GEM (Gemcitabine alone) in the Elimusertib series, single replicates R1-R3)?
Its EC50 is 42.7 nM.

What about the EC50 (ASPC1, 72 h, read-out: pEC50, AsPC1 (converted), Experiment GEM (Gemcitabine alone) in the Gartisertib series, single replicates R1-R3) of the same compound?
Its EC50 is 33.9 nM.

And the EC50 (ASPC1, read-out: EC50 mean [nM], AsPC1, Experiment GEM alone in the Berzosertib series, mean of replicates)?
Its EC50 is 40.5 nM.

What about the EC50 (ASPC1, read-out: EC50 mean [nM], AsPC1, Experiment GEM alone in the Ceralasertib series, mean of replicates) of the same compound?
Its EC50 is 45.5 nM.

What about the EC50 (ASPC1, read-out: EC50 mean [nM], AsPC1, Experiment GEM alone in the Elimusertib series, mean of replicates) of the same compound?
Its EC50 is 44.4 nM.

What about the EC50 (ASPC1, read-out: EC50 mean [nM], AsPC1, Experiment GEM alone in the Gartisertib series, mean of replicates) of the same compound?
The EC50 was 46 nM.

What about the EC50 (ASPC1, read-out: EC50 mean, GEM alone, Berzosertib experiment) of the same compound?
Its EC50 is 40.5 nM.

And the EC50 (ASPC1, read-out: EC50 mean, GEM alone, Ceralasertib experiment)?
Its EC50 is 45.5 nM.

What about the EC50 (ASPC1, read-out: EC50 mean, GEM alone, Elimusertib experiment) of the same compound?
The EC50 was 44.4 nM.

What about the EC50 (ASPC1, read-out: EC50 mean, GEM alone, Gartisertib experiment) of the same compound?
Its EC50 is 46 nM.

And the “Raw data” value (titrated drug dose 10 nM, replicate R3, experiment (ATRi) Ceralasertib, AsPC-1, 72 h)?
The value was 3.37.

What about the “Raw data” value (titrated drug dose 30 nM, replicate R3, experiment (ATRi) Ceralasertib, AsPC-1, 72 h) of the same compound?
The value was 2.93.

And the “Raw data” value (titrated drug dose 1000 nM, replicate R3, experiment (ATRi) Ceralasertib, AsPC-1, 72 h)?
Its value is 1.56.
